Data on seven compounds can be found in PMC6943578, “Isolation of Novel ACE-Inhibitory and Antioxidant Peptides from Quinoa Bran Albumin Assisted with an In Silico Approach: Characterization, In Vivo Antihypertension, and Molecular Docking” (Molecules, 2019).

Read-outs that look alike come from different tables or passages of the source. Where a SMILES comes first, the peptide text is derived from it.

The test system of series [1] is spontaneously hypertensive rats (SHRs). The series can be described thus: Body weight of SHRs during administration. In kind it is in vivo, rat. To be noted: oral 50, 100, 150 mg/kg once daily, five weeks; p > 0.05.
Description: Following the method indicated by Zou et al. [26] with some modifications, 20 male SHRs (10 weeks, 230 ± 20 g body weight (bw)) were purchased from Vital River Laboratory Animal Technology Co., Ltd (Beijing, China). After conditioning for one week, the rats were divided into five groups of four rats each. […] High dosage group (150 mg/kg body weight once daily), middle dosage group (100 mg/kg body weight once daily), and low dosage group (50 mg/kg body weight once daily) were orally given the peptide dissolved in 0.9% saline solution via gastric intubation. All of the treatments were conducted for five consecutive weeks. Each week, the systolic blood pressure (SBP) and diastolic blood pressure (DBP) of the rats were measured with a non-invasive blood-pressure apparatus (BP-300A Non-Invasive Blood Pressure Monitoring System, Chengdu, China). The body weight and heart rate of the rats were determined at the same time. At least five readings were recorded and averaged out.
The target of a further series is T1, ACE (from rabbit lung) (Oryctolagus cuniculus, UniProt P12822).
T1 construct: ACE (from rabbit lung) were purchased from Sigma-Aldrich Co; purchased Sigma-Aldrich Co; host or cells: rabbit lung tissue
T1 sequence (P12822 34-1310): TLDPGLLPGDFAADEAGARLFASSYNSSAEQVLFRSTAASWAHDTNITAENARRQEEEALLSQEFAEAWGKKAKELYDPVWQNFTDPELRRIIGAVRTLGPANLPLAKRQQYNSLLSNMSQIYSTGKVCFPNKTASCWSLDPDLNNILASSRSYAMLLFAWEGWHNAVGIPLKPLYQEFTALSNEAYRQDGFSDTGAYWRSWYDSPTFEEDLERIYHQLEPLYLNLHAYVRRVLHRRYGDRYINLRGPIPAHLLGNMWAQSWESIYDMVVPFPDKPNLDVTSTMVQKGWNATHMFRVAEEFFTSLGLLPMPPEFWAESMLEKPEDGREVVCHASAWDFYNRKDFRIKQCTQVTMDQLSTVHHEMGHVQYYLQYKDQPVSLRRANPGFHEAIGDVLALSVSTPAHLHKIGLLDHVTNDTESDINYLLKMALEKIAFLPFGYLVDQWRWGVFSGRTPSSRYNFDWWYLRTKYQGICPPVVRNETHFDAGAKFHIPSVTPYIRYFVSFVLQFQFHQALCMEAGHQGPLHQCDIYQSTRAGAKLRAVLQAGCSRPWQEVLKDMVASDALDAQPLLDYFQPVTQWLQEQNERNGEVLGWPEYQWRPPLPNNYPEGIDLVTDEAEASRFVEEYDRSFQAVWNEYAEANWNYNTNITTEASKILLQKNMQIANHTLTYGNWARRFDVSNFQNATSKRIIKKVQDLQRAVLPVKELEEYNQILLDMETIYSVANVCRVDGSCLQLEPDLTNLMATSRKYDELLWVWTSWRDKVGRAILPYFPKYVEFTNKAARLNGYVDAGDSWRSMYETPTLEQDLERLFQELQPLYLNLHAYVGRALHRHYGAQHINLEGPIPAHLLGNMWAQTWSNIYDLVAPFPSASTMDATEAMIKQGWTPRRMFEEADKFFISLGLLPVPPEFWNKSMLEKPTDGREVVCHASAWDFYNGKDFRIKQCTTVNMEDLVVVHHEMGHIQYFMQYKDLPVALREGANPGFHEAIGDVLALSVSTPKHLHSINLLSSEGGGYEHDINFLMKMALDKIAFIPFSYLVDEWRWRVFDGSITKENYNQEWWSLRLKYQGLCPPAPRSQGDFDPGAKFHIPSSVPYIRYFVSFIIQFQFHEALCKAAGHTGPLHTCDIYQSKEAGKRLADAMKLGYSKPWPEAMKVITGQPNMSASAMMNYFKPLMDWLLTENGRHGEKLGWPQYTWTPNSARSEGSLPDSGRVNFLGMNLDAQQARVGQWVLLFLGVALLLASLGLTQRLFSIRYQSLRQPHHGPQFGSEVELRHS
The series can be described thus: ACE-inhibitory activity, HHL substrate, spectrophotometric. In kind it is biochemical. To be noted: synthetic peptide, 37 °C, 1 h, absorbance at 228 nm, from regression of % inhibition vs concentration, repeated at least three times. On the procedure: The ACE-inhibitory activity was evaluated using HHL as a substrate by monitoring the released hippuric acid using a spectrophotometric method. Briefly, the reaction system comprised 50 µL of ACE (25 mU), 150 µL of 8.3 mM HHL, and 50 µL of sample solutions. After incubation in a shaking water bath (37 °C) for 1 h, 1 M HCl (250 µL) was added to stop the reaction. The hippuric acid formed was subsequently extracted by 1.4 mL ethyl acetate. After centrifugation, 1 mL of the supernatant was collected and evaporated at 80 °C for 60 min in a vacuum. The residue was then dissolved in 2 mL of distilled water and the absorbance at 228 nm was read. The inhibitory activity was calculated as follows:(1) ACE inhibition % = 1− AS/AC ×100, where AC is the absorbance of the ACE solution without an inhibitor and AS is the absorbance of the mixture-contained samples. The IC50 value, the inhibitor concentration required to inhibit half the ACE activity, was acquired by nonlinear regression from a plot of percentage ACE inhibition versus different inhibitor concentrations.

For series [2] the following is noted: read-out: ABTS·+ scavenging ability IC50; cited from earlier work. The text has this: ABTS·^+ scavenging activity represents the total antioxidant activity of potential antioxidants. […] Moreover, the presence of hydrophobic amino ...
The conditions of series [3]: cited from earlier work. The text has this: The presence of some metal ions like Fe^2+ and Cu^2+ can extremely accelerate the oxidative chain reaction of oil and induce the production of more various radicals. […] It was pointed out that amino acid residues such as Pro, Phe, and Arg in the side chain could act a ...
Another series relates to ACE. Details: method as in 2 sources, one per row (each row's own in cited_ref): ref 6 = [6]; PMID 28317757; doi:10.1016/j.foodchem.2017.02.039; 6. Lee S.Y. Hur S.J. Antihypertensive peptides from animal products, marine organisms, and plants Food Chem. 2017 228 506 517 10.1016/j.foodchem.2017.02.039 28317757 ||| ref 25, 30, 31 = [25]; PMID 30229250; doi:10.1039/C8FO00569A; 25. Ling Y. Sun L.P. Zhuang Y.L. Preparation and identification of novel inhibitory angiotensin-I-converting enzyme peptides from tilapia skin gelatin hydrolysates: inhibition kinetics and molecular d || [30]; doi:10.1016/j.lwt.2018.12.059; 30. Bhaskara B. Ananthanarayana L. Jamdar S. Purification, identification, and characterization of novel angiotensin I converting enzyme (ACE) inhibitory peptides from alcalase digested horse gram flo || [31]; doi:10.1016/j.lwt.2016.08.047; 31. Wang X. Chen H. Fu X. Li S. Wei J. A novel antioxidant and ACE inhibitory peptide from rice bran protein: Biochemical characterization and molecular docking study LWT-Food Sci. Technol. 2017 75 93. To be noted: peptides from tilapia skin gelatin, horse gram protein, rice bran protein; read-out: IC50 of ACE-inhibitory activity; cited from earlier work. The text has this: With the help of databases AHTPDB and BIOPEP, and based on the similarity to the already reported ACE-inhibitory and antioxidant peptides, three peptides, namely […]

Turning to `CC[C@H](C)[C@H](NC(=O)[C@@H](NC(=O)[C@H](CCC(N)=O)NC(=O)CNC(=O)[C@@H](N)CCCNC(=N)N)C(C)C)C(=O)N[C@@H](Cc1ccc(O)cc1)C(=O)N[C@H](C(=O)N[C@@H](CC(C)C)C(=O)O)C(C)C` (H-RGQVIYVL-OH), the “Side effect on SHRs (heart rate and body weight vs negative control)” value in series [1] is “no obvious side effect”. Moreover, at ACE (from rabbit lung), the midpoint of inhibition, the IC50, lay at 38.2 µM.

Take “HPLDSLCL [literature antioxidant peptide]”: the 50% inhibitory concentration (IC50) (usually the concentration that gives 50% inhibition) in series [2] is 74.4 µM.

In the case of “Leu-Ala-Arg-Leu [literature peptide from tilapia gelatin]”, the “Fe2+ chelating ability” value in series [3] (at 1 mg/mL, peptide from tilapia gelatin) is listed as 46.53%.

QLLLQQ: the half-maximal inhibitory concentration (IC50) in the series on ACE was 75 µM.

As for VGLPNSR, the 50% inhibitory concentration (IC50) in the series with ACE was 80.9 µM.

As for “VTSLDLPVLRW [literature antioxidant peptide]”, in series [2], the IC50 is 661 µM.

Turning to “YYIVS [literature peptide from sweet potato protein]”, the “Fe2+ chelating ability” value in series [3] (at 3 mg/mL, peptide from sweet potato protein) is 59.74%.
